{"source": "ChEMBL document CHEMBL1201862", "about": "“PubChem BioAssay data set” (2004)", "assay_in_all_cases": "DTP human tumour cell line panel, 48 h", "key": {"[1]": {"system": "XF498"}, "[2]": {"system": "KM12"}, "[3]": {"system": "SF-268"}, "[4]": {"system": "SF-295"}, "[5]": {"system": "NCI-H522"}, "[6]": {"system": "SK-MEL-5"}, "[7]": {"system": "Hs-578T"}, "[8]": {"system": "NCI-H460"}, "[9]": {"system": "LXFL 529"}, "[10]": {"system": "HCC 2998"}, "[11]": {"system": "HCT-15"}, "[12]": {"system": "DLD-1"}, "[13]": {"system": "M14"}, "[14]": {"system": "DU-145"}, "[15]": {"system": "DMS-114"}, "[16]": {"system": "UACC-62"}, "[17]": {"system": "K562"}, "[18]": {"system": "RPMI-8226"}, "[19]": {"system": "OVCAR-3"}, "[20]": {"system": "SN12C"}, "[21]": {"system": "OVCAR-4"}, "[22]": {"system": "TK-10"}, "[23]": {"system": "MDA-N"}, "[24]": {"system": "UACC-257"}, "[25]": {"system": "COLO 205"}, "[26]": {"system": "HCT-116"}, "[27]": {"system": "U-251"}, "[28]": {"system": "MDA-MB-435"}, "[29]": {"system": "RXF 631"}, "[30]": {"system": "HOP-62"}, "[31]": {"system": "MCF7"}, "[32]": {"system": "SK-MEL-2"}, "[33]": {"system": "NCI-H23"}, "[34]": {"system": "DMS-273"}, "[35]": {"system": "MDA-MB-231"}, "[36]": {"system": "SK-OV-3"}, "[37]": {"system": "HL-60"}, "[38]": {"system": "A549"}, "[39]": {"system": "A498"}, "[40]": {"system": "NCI-H226"}, "[41]": {"system": "SR"}, "[42]": {"system": "PC-3"}, "[43]": {"system": "OVCAR-8"}, "[44]": {"system": "HOP-92"}, "[45]": {"system": "EKVX"}, "[46]": {"system": "786-0"}, "[47]": {"system": "SF-539"}, "[48]": {"system": "CCRF-CEM"}, "[49]": {"system": "SW-620"}, "[50]": {"system": "MOLT-4"}, "[51]": {"system": "RXF 393"}, "[52]": {"system": "Malme-3M"}, "[53]": {"system": "BT-549"}, "[54]": {"system": "T47D"}, "[55]": {"system": "OVCAR-5"}, "[56]": {"system": "UO-31"}, "[57]": {"system": "SNB-19"}, "[58]": {"system": "HOP-18"}, "[59]": {"system": "SK-MEL-28"}, "[60]": {"system": "KM-20L2"}, "[61]": {"system": "SNB-75"}, "[62]": {"system": "HT-29"}, "[63]": {"system": "IGROV-1"}, "[64]": {"system": "SNB-78"}, "[65]": {"system": "LOX IMVI"}, "[66]": {"system": "CAKI-1"}, "[67]": {"system": "ACHN"}}, "note": "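96-well plates; 48 h exposure; 5 concentrations. Endpoints by linear interpolation between flanking doses. Not reached: highest tested concentration assigned. At the GI50, growth is halved.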 The source made the active and inactive calls. Cut-off read from the data, not from the text of the source: active = GI50 up to about 1.1 µM and inactive = higher."}
{"smiles": "C=C(CN(C)C)C(=O)c1ccc(OC2OC(COC(C)=O)C(OC(C)=O)C(OC(C)=O)C2OC(C)=O)cc1", "note": "(configuration not stated)", "values": [{"measurement": "GI50", "setting": "[1]", "value": "1.69 µM (inactive)"}, {"measurement": "GI50", "setting": "[2]", "value": "17.6 µM (inactive)"}, {"measurement": "GI50", "setting": "[3]", "value": "19.7 µM (inactive)"}, {"measurement": "GI50", "setting": "[4]", "value": "21.3 µM (inactive)"}, {"measurement": "GI50", "setting": "[5]", "value": "0.447 µM (active)"}, {"measurement": "GI50", "setting": "[6]", "value": "6.37 µM (inactive)"}, {"measurement": "GI50", "setting": "[7]", "value": "19.7 µM (inactive)"}, {"measurement": "GI50", "setting": "[8]", "value": "20.1 µM (inactive)"}, {"measurement": "GI50", "setting": "[9]", "value": "1.52 µM (inactive)"}, {"measurement": "GI50", "setting": "[10]", "value": "18.1 µM (inactive)"}, {"measurement": "GI50", "setting": "[11]", "value": 3.03, "unit": "µM"}, {"measurement": "GI50", "setting": "[12]", "value": "0.912 µM (active)"}, {"measurement": "GI50", "setting": "[13]", "value": "2.4 µM (inactive)"}, {"measurement": "GI50", "setting": "[14]", "value": "17.5 µM (inactive)"}, {"measurement": "GI50", "setting": "[15]", "value": "5.9 µM (inactive)"}, {"measurement": "GI50", "setting": "[16]", "value": "4.7 µM (inactive)"}, {"measurement": "GI50", "setting": "[17]", "value": "0.533 µM (active)"}, {"measurement": "GI50", "setting": "[18]", "value": "2.88 µM (inactive)"}, {"measurement": "GI50", "setting": "[19]", "value": "2.25 µM (inactive)"}, {"measurement": "GI50", "setting": "[20]", "value": "9.98 µM (inactive)"}, {"measurement": "GI50", "setting": "[21]", "value": "3.75 µM (inactive)"}, {"measurement": "GI50", "setting": "[22]", "value": "3.39 µM (inactive)"}, {"measurement": "GI50", "setting": "[23]", "value": "3.03 µM (inactive)"}, {"measurement": "GI50", "setting": "[24]", "value": "2.34 µM (inactive)"}, {"measurement": "GI50", "setting": "[25]", "value": "0.753 µM (active)"}, {"measurement": "GI50", "setting": "[26]", "value": "2.25 µM (inactive)"}, {"measurement": "GI50", "setting": "[27]", "value": "15.8 µM (inactive)"}, {"measurement": "GI50", "setting": "[28]", "value": "6.18 µM (inactive)"}, {"measurement": "GI50", "setting": "[29]", "value": "14.3 µM (inactive)"}, {"measurement": "GI50", "setting": "[30]", "value": "15.3 µM (inactive)"}, {"measurement": "GI50", "setting": "[31]", "value": "1.77 µM (inactive)"}, {"measurement": "GI50", "setting": "[32]", "value": "10.3 µM (inactive)"}, {"measurement": "GI50", "setting": "[33]", "value": "8.89 µM (inactive)"}, {"measurement": "GI50", "setting": "[34]", "value": "6.85 µM (inactive)"}, {"measurement": "GI50", "setting": "[35]", "value": "5 µM (inactive)"}, {"measurement": "GI50", "setting": "[36]", "value": "19.4 µM (inactive)"}, {"measurement": "GI50", "setting": "[37]", "value": "0.456 µM (active)"}, {"measurement": "GI50", "setting": "[38]", "value": "21.2 µM (inactive)"}, {"measurement": "GI50", "setting": "[39]", "value": "14.1 µM (inactive)"}, {"measurement": "GI50", "setting": "[40]", "value": "7.36 µM (inactive)"}, {"measurement": "GI50", "setting": "[41]", "value": "0.975 µM (active)"}, {"measurement": "GI50", "setting": "[42]", "value": "15.3 µM (inactive)"}, {"measurement": "GI50", "setting": "[43]", "value": "4.21 µM (inactive)"}, {"measurement": "GI50", "setting": "[44]", "value": "0.581 µM (active)"}, {"measurement": "GI50", "setting": "[45]", "value": "11.8 µM (inactive)"}, {"measurement": "GI50", "setting": "[46]", "value": "2.24 µM (inactive)"}, {"measurement": "GI50", "setting": "[47]", "value": "10.1 µM (inactive)"}, {"measurement": "GI50", "setting": "[48]", "value": "0.185 µM (active)"}, {"measurement": "GI50", "setting": "[49]", "value": "0.678 µM (active)"}, {"measurement": "GI50", "setting": "[50]", "value": "0.54 µM (active)"}, {"measurement": "GI50", "setting": "[51]", "value": "1.76 µM (inactive)"}, {"measurement": "GI50", "setting": "[52]", "value": "1.96 µM (inactive)"}, {"measurement": "GI50", "setting": "[53]", "value": "2.61 µM (inactive)"}, {"measurement": "GI50", "setting": "[54]", "value": "2.9 µM (inactive)"}, {"measurement": "GI50", "setting": "[55]", "value": "16.5 µM (inactive)"}, {"measurement": "GI50", "setting": "[56]", "value": "2.34 µM (inactive)"}, {"measurement": "GI50", "setting": "[57]", "value": "19.8 µM (inactive)"}, {"measurement": "GI50", "setting": "[58]", "value": "3.54 µM (inactive)"}, {"measurement": "GI50", "setting": "[59]", "value": "2.52 µM (inactive)"}, {"measurement": "GI50", "setting": "[60]", "value": "17.4 µM (inactive)"}, {"measurement": "GI50", "setting": "[61]", "value": "11.4 µM (inactive)"}, {"measurement": "GI50", "setting": "[62]", "value": "2.75 µM (inactive)"}, {"measurement": "GI50", "setting": "[63]", "value": "13.4 µM (inactive)"}, {"measurement": "GI50", "setting": "[64]", "value": "8.93 µM (inactive)"}, {"measurement": "GI50", "setting": "[65]", "value": "3.35 µM (inactive)"}, {"measurement": "GI50", "setting": "[66]", "value": "1.59 µM (inactive)"}, {"measurement": "GI50", "setting": "[67]", "value": "1.62 µM (inactive)"}]}
